Reference: ChEMBL document CHEMBL5365466, “Discovery of Triazolyl Derivatives of Cucurbitacin B Targeting IGF2BP1 against Non-Small Cell Lung Cancer” (J Med Chem, 2023)
Activity calls are given as the source filed them. No cut-off for these calls is given here.

What was measured:
A549 [1] = assay: Induction of autophagy in human A549 cells assessed as upregulation of p62 protein expression at 0.1 to 0.5 uM incubated for 48 hrs by Western blotting analysis; format: functional, cell-based; settings: dose 0.1-0.5 µM
[2] = biological target: T1, Insulin-like growth factor 2 mRNA-binding protein 1 (Homo sapiens, UniProt Q9NZI8); assay: Binding affinity to IGF2BP1 in human A549 cells assessed as protein stabilization at 1 uM at 49 degreeC incubated for 2 hrs by CETSA; format: cell-based
[3] = Antiproliferative activity against human L02 cells assessed as cell growth inhibition incubated for 72 hrs by SRB assay; format: toxicity, cell-based
[4] = Selectivity index, ratio of IC50 for antiproliferative activity against human L02 cells to IC50 for antiproliferative activity against human HeLa cells; format: toxicity, cell-based; settings: L02 cells versus HeLa cells, read-out: Ratio IC50
A549 [5] = assay: Induction of cell cycle arrest in human A549 cells assessed as accumulation of cells at S phase at 0.2 uM incubated for 24 hrs by PI staining based flow cytometric analysis (reference value: 23 %); format: functional
A549 [6] = assay: Induction of apoptosis in human A549 cells assessed as downregulation of c-Myc expression incubated for 48 hrs by Western blotting analysis; format: functional, cell-based
PANC-1 = assay: Antiproliferative activity against human PANC-1 cells assessed as cell growth inhibition incubated for 72 hrs by SRB assay; format: functional, cell-based; settings: PANC-1, 72 h
A549 [7] = assay: Induction of cell cycle arrest in human A549 cells assessed as accumulation of cells at G1 phase at 0.5 uM incubated for 24 hrs by PI staining based flow cytometric analysis (reference value: 65.6 %); format: functional
[8] = Selectivity index, ratio of IC50 for antiproliferative activity against human L02 cells to IC50 for antiproliferative activity against human PANC-1 cells
A549 [9] = assay: Antitumor activity against human A549 cells xenografted in BALB/c mouse assessed as decrease in tumor volume at 0.5 mg/kg,ip administrated for 21 days; format: functional, organism-based; settings: time 21.0 day
A549 [10] = assay: Induction of apoptosis in human A549 cells at 0.5 uM incubated for 48 hrs by Annexin V-FITC/PI staining based flow cytometric analysis; format: functional
MDA-MB-231 = assay: Antiproliferative activity against human MDA-MB-231 cells assessed as cell growth inhibition incubated for 72 hrs by SRB assay; format: functional, cell-based; settings: MDA-MB-231, 72 h
[11] = biological target: T1, Insulin-like growth factor 2 mRNA-binding protein 1; assay: Binding affinity to IGF2BP1 in human A549 cells assessed as protein stabilization at 1 uM at 52 degreeC incubated for 2 hrs by CETSA; format: cell-based
[12] = Acute toxicity in C57BL/6J mouse assessed as death at 0.75 mg/kg,ip measured after 14 days; format: organism-based; settings: in vivo, 336 h, time 14 day
[13] = Acute toxicity in C57BL/6J mouse assessed as change in body weight at 0.75 mg/kg,ip measured after 14 days; format: organism-based; settings: in vivo, 336 h, time 14 day
[14] = Acute toxicity in BALB/c mouse xenografted with human A549 cells assessed as change in body weight at 0.5 mg/kg,ip administrated for 21 days; format: organism-based; settings: in vivo, 504 h, time 21 day
A549 [15] = assay: Antitumor activity against human A549 cells xenografted in BALB/c mouse assessed as decrease in tumor weight at 0.5 mg/kg,ip administrated for 21 days; format: functional, organism-based; settings: time 21.0 day
[16] = Selectivity index, ratio of IC50 for antiproliferative activity against human L02 cells to IC50 for antiproliferative activity against human BXPC-3 cells; format: toxicity, cell-based; settings: L02 cells versus BXPC-3 cells, read-out: Ratio IC50
A549 [17] = assay: Antiproliferative activity against wild type human A549 cells assessed as cell growth inhibition incubated for 72 hrs by SRB assay; format: functional, cell-based; settings: A549, 72 h
CFPAC-1 = assay: Antiproliferative activity against human CFPAC-1 cells assessed as cell growth inhibition incubated for 72 hrs by SRB assay; format: functional, cell-based; settings: CFPAC-1, 72 h
HCT-116 = assay: Antiproliferative activity against human HCT-116 cells assessed as cell growth inhibition at 1 uM incubated for 72 hrs by SRB assay; format: functional
[18] = Selectivity index, ratio of IC50 for antiproliferative activity against human L02 cells to IC50 for antiproliferative activity against human MCF7 cells; format: toxicity, cell-based; settings: L02 cells versus MCF7 cells, read-out: Ratio IC50
A549 [19] = assay: Induction of apoptosis in human A549 cells assessed as downregulation of Cyclin D1 expression incubated for 48 hrs by Western blotting analysis; format: functional, cell-based
SK-OV-3 = assay: Antiproliferative activity against human SK-OV-3 cells assessed as cell growth inhibition incubated for 72 hrs by SRB assay; format: functional, cell-based; settings: SK-OV-3, 72 h
BXPC-3 = assay: Antiproliferative activity against human BXPC-3 cells assessed as cell growth inhibition incubated for 72 hrs by SRB assay; format: functional, cell-based; settings: BXPC-3, 72 h
[20] = Selectivity index, ratio of IC50 for antiproliferative activity against human L02 cells to IC50 for antiproliferative activity against human CFPAC-1 cells

T1 sequence (Q9NZI8 whole entry): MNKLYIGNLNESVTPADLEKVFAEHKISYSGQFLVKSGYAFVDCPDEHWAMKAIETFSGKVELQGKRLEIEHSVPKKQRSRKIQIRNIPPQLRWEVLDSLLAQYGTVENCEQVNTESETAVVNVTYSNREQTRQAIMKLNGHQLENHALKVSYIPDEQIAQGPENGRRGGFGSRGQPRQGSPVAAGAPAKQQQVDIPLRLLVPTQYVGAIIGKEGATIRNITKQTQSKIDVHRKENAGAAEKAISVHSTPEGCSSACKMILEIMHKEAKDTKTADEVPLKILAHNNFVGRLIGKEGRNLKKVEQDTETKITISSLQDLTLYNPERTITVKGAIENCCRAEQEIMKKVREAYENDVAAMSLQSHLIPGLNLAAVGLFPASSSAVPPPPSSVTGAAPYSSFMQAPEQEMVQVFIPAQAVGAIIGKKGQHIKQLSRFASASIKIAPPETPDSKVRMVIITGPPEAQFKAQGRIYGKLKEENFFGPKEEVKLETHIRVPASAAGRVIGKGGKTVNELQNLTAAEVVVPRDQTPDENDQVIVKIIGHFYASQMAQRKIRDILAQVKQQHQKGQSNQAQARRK

Structure (SMILES): CC(=O)OC(C)(C)/C=C/C(=O)[C@](C)(O)[C@H]1[C@H](O)C[C@@]2(C)[C@@H]3CC=C4[C@@H](C[C@H](OC(=O)Cn5ncn(-c6ccc(F)cc6)c5=O)C(=O)C4(C)C)[C@]3(C)C(=O)C[C@]12C
- Activity (A549 [1]): Dose-Dependent Effect
- Activity [2]: Active
- IC50 at 72 h [3]: 100 nM
- selectivity ratio [4]: 6.67
- Activity (A549 [5]): 16.6%
- Activity (A549 [6]): Dose-Dependent Effect
- IC50 (PANC-1): 88 nM
- Activity (A549 [7]): 51.3%
- Ratio IC50 [8]: 1.14
- Activity (A549 [9]): Active
- Activity (A549 [10]): 36.7%
- IC50 (MDA-MB-231): 49 nM
- Activity [11]: Active
- Activity [12]: Non-Toxic
- Activity [13]: Toxic
- Activity [14]: Non-Toxic
- Activity (A549 [15]): Active
- selectivity ratio [16]: 5.56
- IC50 (A549 [17]): 5 nM
- IC50 (CFPAC-1): 37 nM
- inhibition at 1 µM (HCT-116): 84.1%
- selectivity ratio [18]: 1.79
- Activity (A549 [19]): Dose-Dependent Effect
- IC50 (SK-OV-3): 54 nM
- IC50 (BXPC-3): 18 nM
- Ratio IC50 [20]: 2.7
